Measurements reported in PubChem BioAssay (NCI).
Where “and” joins values, the source holds several entries; their conditions need not be identical. Equal values may be shown once.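 In this assay, cells in 96-well plates receive the compound at five concentrations for 48 hours. Endpoints are linearly interpolated between the surrounding concentrations. GI50 is the concentration that inhibits growth by half. TGI is the concentration that stops growth completely.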

What was measured:
Experiment in all cases: NCI anticancer screen, dose series, 48 h
SK-OV-3 ovarian = tested on: SK-OV-3 ovarian
HOP-62 NSCLC = tested on: HOP-62 NSCLC
KM20L2 colon = tested on: KM20L2 colon
DMS 273 small cell lung = tested on: DMS 273 small cell lung
SK-MEL-2 melanoma = tested on: SK-MEL-2 melanoma
RXF 393 renal = tested on: RXF 393 renal
HL-60(TB) leukemia = tested on: HL-60(TB) leukemia
XF 498 CNS = tested on: XF 498 CNS
RPMI-8226 leukemia = tested on: RPMI-8226 leukemia
OVCAR-5 ovarian = tested on: OVCAR-5 ovarian
SNB-78 CNS = tested on: SNB-78 CNS
HCC-2998 colon = tested on: HCC-2998 colon

Row | Compound | GI50 (SK-OV-3 ovarian) [µM] | TGI (SK-OV-3 ovarian) [µM] | GI50 (HOP-62 NSCLC) | TGI (KM20L2 colon) [µM] | TGI (DMS 273 small cell lung) [µM] | TGI (SK-MEL-2 melanoma) [µM] | GI50 (RXF 393 renal) [nM] | GI50 (HL-60(TB) leukemia) [µM] | TGI (XF 498 CNS) [µM] | TGI (RPMI-8226 leukemia) [µM] | GI50 (OVCAR-5 ovarian) [µM] | TGI (OVCAR-5 ovarian) [µM] | TGI (HOP-62 NSCLC) [µM] | TGI (SNB-78 CNS) [µM] | TGI (RXF 393 renal) [µM] | TGI (HCC-2998 colon) [µM] | TGI (HL-60(TB) leukemia) [µM] | GI50 (SK-MEL-2 melanoma) [µM] | GI50 (HCC-2998 colon) [µM] | GI50 (RPMI-8226 leukemia) [µM]
1 | CC[C@@]1(O)C(=O)OCc2c1cc1n(c2=O)Cc2cc3c(OC)cccc3nc2-1 | 0.00955 | 4.41 | 0.000532 µM and < 0.215 µM | > 23.6 | 1.14 | 2.6 | 0.0413 | 0.00321 | 0.876 | 1.81 | 0.0386 | 7.13 |  |  |  |  |  |  |  | 
2 | S=c1sc2sc(=S)sc2s1 |  | 33.9 |  | > 100 | > 100 | > 100 |  |  |  | > 100 |  | 40.2 | > 100 | > 100 | > 100 | > 100 | 23.3 |  |  | 
3 | CCOC(=O)c1sc(Nc2cc(Cl)ccc2Cl)nc1C |  |  |  | > 100 |  | > 100 |  |  | > 100 | > 100 |  | > 100 | > 100 | > 100 | > 100 | > 100 | > 100 |  |  | 
4 | Cc1cc2c(=O)cc(-c3ccc(Cl)c(Cl)c3)oc2c(C(=O)O)c1C |  | > 100 |  | > 100 |  | > 100 |  |  | > 100 | > 100 |  | > 100 |  | > 100 | > 100 |  |  |  |  | 
5 | Cc1ccc(C)c(N2C(=O)C(=O)C(c3nc4ccccc4s3)C(=O)C2=O)c1 |  | > 100 |  | > 100 | > 100 | > 100 |  |  |  | > 100 |  | > 100 | > 100 | > 100 | > 100 | > 100 | > 100 |  |  | 
6 | Cc1cc2c(cc1C)[n+](=O)c(C(=O)CC(=O)C(=O)Nc1ccccc1C)c(C)n2[O-] |  | > 100 |  | > 100 | > 100 | > 100 |  |  |  | > 100 |  | > 100 | > 100 | > 100 | > 100 | > 100 | > 100 |  |  | 
7 | Cc1ccccc1C(C#N)/C(=N/NC(N)=S)C(=O)Nc1c(C)cccc1C (centres undefined) |  |  |  | > 100 |  | > 100 |  |  | > 100 | > 100 |  | > 100 | > 100 | > 100 | > 100 | > 100 | > 100 |  |  | 
8 | Cc1cc2c(=O)cc(-c3ccc(Cl)cc3Cl)oc2c(C(=O)O)c1C |  | > 100 |  | > 100 |  | > 100 |  |  | > 100 | > 100 |  | > 100 |  | > 100 | > 100 |  |  |  |  | 
9 | CC(=O)OC1C(COC(N)=O)OC(n2c(-c3ccc(C)cc3)cc(-c3ccccc3)c(C#N)c2=O)C(OC(C)=O)C1OC(C)=O (centres undefined) |  | > 100 |  | > 100 | > 100 | > 100 |  |  |  | > 100 |  | > 100 | > 100 | > 100 | > 100 | > 100 |  |  |  | 
10 | C=CCC1=C2CCCCC2CCC1=O (centres undefined) |  | > 100 |  |  | > 100 | > 100 |  |  | > 100 | > 100 |  | > 100 | > 100 | > 100 | > 100 |  | > 100 |  |  | 
11 | O=C1/C(=C\c2ccc(Cl)cc2)CN(C(=O)c2ccccc2)C/C1=C\c1ccc(Cl)cc1 | 4.64 | 32.3 | 2.45 µM |  |  | 71.2 | 1680 | 6.58 |  | 1.36 | 5.24 | 43.2 | 6.41 |  | 3.26 | 3.97 | 66.2 | 16.8 | 2.03 | 0.274
12 | CCN1C2=C(SC(=S)C1=C1SC(C(=O)c3ccccc3)=C(C(=O)c3ccccc3)S1)SC(=Nc1ccccc1)C2=O | > 96.7 | > 100 | 21.7 µM |  |  | > 47.3 | 9090 | > 100 |  | > 100 | > 100 | > 100 | 76.2 |  | > 45.3 | > 100 | > 100 | 7.74 | > 100 | 2.13
13 | COC(=O)CCC(=O)C(CC(=O)OC)C(=O)CCC(=O)NCCc1ccccc1 (centres undefined) |  | > 100 |  | > 100 | > 100 | > 100 |  |  |  | > 100 |  | > 100 | > 100 | > 100 | > 100 | > 100 | > 100 |  |  | 
14 | O=C(NCCCNc1cc(-c2cn(-c3ccccc3)nc2-c2cccc(O)c2)ccn1)c1ccc(F)cc1 | 3.39 | 24.2 | 2.64 µM |  |  | 5.06 | 1630 | 2.46 |  | 5.55 | 2.62 | 28.6 | 10.8 |  | 4.63 | 3.4 | 6.49 | 2.18 | 1.83 | 1.94
15 | Cc1cc2c(=O)cc(-c3ccc(C(=O)O)cc3)oc2c(C(N)=O)c1C |  | > 100 |  | > 100 | > 100 | > 100 |  |  |  | > 100 |  | > 100 | > 100 | > 100 |  | > 100 |  |  |  | 
16 | O=C1C2=C(c3ccccc31)C(c1ccccc1Cl)NC(=S)N2 (centres undefined) |  | > 100 |  | > 100 | > 100 | > 100 |  |  | > 100 | > 100 |  | > 100 | > 100 |  |  | > 100 | > 100 |  |  | 
